Test results published in the CheMixHub viscosity set.
Where “and” joins values, the source holds several entries; their conditions need not be identical. Equal entries are not always repeated.

Legend:
[1] = xn = mol fraction of the nth substance listed

C=CC#N
Conditions | viscosity
293.15 K, 101 kPa | 0.362 mPa·s
298.15 K, 101 kPa | 0.342 mPa·s
298.15 K, 101.33 kPa | 0.339 mPa·s
303.15 K, 101 kPa | 0.325 mPa·s
303.15 K, 101.3 kPa | 0.3111 mPa·s and 0.3111 mPa·s
303.15 K, 101.33 kPa | 0.324 mPa·s and 0.324 mPa·s and 0.326 mPa·s
307.4 K, 101.33 kPa | 0.76 mPa·s and 0.53 mPa·s and 0.584 mPa·s
308.15 K, 101 kPa | 0.3296 mPa·s
313.15 K, 101 kPa | 0.305 mPa·s
323.15 K, 101 kPa | 0.287 mPa·s

CC(C)(N)CO
viscosity
Conditions | 298.15 K | 303.15 K | 308.15 K | 313.15 K | 318.15 K | 323.15 K
100 kPa | 132.3 mPa·s | 98.48 mPa·s | 69.98 mPa·s | 46.99 mPa·s | 32.2 mPa·s | 24.45 mPa·s
101 kPa | – | 89 mPa·s and 99.48 mPa·s | 60.8 mPa·s | 43.7 mPa·s and 47.25 mPa·s | 32.2 mPa·s | 23.05 mPa·s and 24.33 mPa·s

CC(CC(C)(C)C)CC(C)(C)C
viscosity [mPa·s]
Conditions | 293.15 K | 298.15 K | 313.15 K | 323.15 K
101.33 kPa | – | 1.217 | – | –
102 kPa | 1.32 | – | 0.956 | 0.828

CC(CC(C)(C)C)CP(=O)([O-])CC(C)CC(C)(C)C.CCCCCCCCCCCCCC[P+](CCCCCC)(CCCCCC)CCCCCC
101 kPa
Conditions | viscosity [mPa·s]
303.15 K | 757
313.15 K | 439
323.15 K | 264

CC1CCC(O)CC1 (configuration not stated)
Conditions | viscosity [mPa·s]
293.15 K, 101 kPa | 30.4

CCC(C)(C)O
viscosity
Conditions | 298.15 K | 303.15 K | 308.15 K | 313.15 K | 318.15 K | 323.15 K
101 kPa | 3.506 mPa·s and 3.532 mPa·s and 4.413 mPa·s | – | – | – | 1.681 mPa·s | –
101.3 kPa | 3.52 mPa·s | 2.87 mPa·s | 2.37 mPa·s | 1.96 mPa·s | – | –
101.33 kPa | – | 2.854 mPa·s | – | 1.976 mPa·s | – | 1.416 mPa·s

CCCCC(C)CC (configuration not stated)
100 kPa
Conditions | viscosity [mPa·s]
293.15 K | 0.512
298.15 K | 0.485
303.15 K | 0.462
308.15 K | 0.44
313.15 K | 0.422

CCCCC(C)O (configuration not stated)
viscosity
Conditions | 298.15 K | 303.15 K | 308.15 K | 313.15 K | 318.15 K
100 kPa | – | 3.29 mPa·s | 2.71 mPa·s | 2.28 mPa·s | 1.93 mPa·s
101.33 kPa | 4.047 mPa·s and 4.047 mPa·s | – | – | – | –

CCCCCCCCCCCCCCCCCC[P+](CCCC)(CCCC)CCCC.N#Cc1ccc[n-]1
100 kPa
Conditions | viscosity [mPa·s]
293.15 K | 742
298.15 K | 519
303.15 K | 379
313.15 K | 208

CCCCCCc1ccccc1
Conditions | viscosity [mPa·s]
303.15 K, 102 kPa | 1.4

CCCCN(CCCC)CCCC
viscosity
Conditions | 293.15 K | 298.15 K | 303.15 K | 308.15 K | 313.15 K | 318.15 K | 323.15 K
100 kPa | – | – | 1.14 mPa·s and 1 mPa·s | 1.09 mPa·s | – | – | –
101 kPa | – | 1.273 mPa·s | 1.157 mPa·s and 1.155 mPa·s | 1.064 mPa·s and 1.069 mPa·s | 0.9845 mPa·s and 1 mPa·s | 0.9086 mPa·s | 0.8422 mPa·s
101.3 kPa | – | – | – | – | 0.9974 mPa·s | – | –
101.33 kPa | 1.45 mPa·s | 1.28 mPa·s | – | 1.07 mPa·s | 0.99 mPa·s | – | 0.863 mPa·s

CCCCOC(=O)c1ccccc1C(=O)OCCCC
Conditions | viscosity [mPa·s]
303.15 K, 101.33 kPa | 13.33

CCCC[P+](CC)(CC)CC.N#Cc1ccc[n-]1
100 kPa
Conditions | viscosity [mPa·s]
293.15 K | 187
298.15 K | 137
303.15 K | 104
313.15 K | 62

CC[N+](C)(CC)CCOC.O=S(=O)([N-]S(=O)(=O)C(F)(F)F)C(F)(F)F
101 kPa
Conditions | viscosity [mPa·s]
293.15 K | 162.2
298.15 K | 119.2
303.15 K | 89.7
308.15 K | 67.72
313.15 K | 53.02
318.15 K | 40.98
323.15 K | 33.06

CC[n+]1cc[nH]c1.O=S(=O)([N-]S(=O)(=O)C(F)(F)F)C(F)(F)F
Conditions | viscosity [mPa·s]
297.55 K, 101 kPa | 57.1

CN(C)c1ccccc1
viscosity
Conditions | 100 kPa | 101 kPa | 101.3 kPa
293.15 K | 1.415 mPa·s | – | –
298 K | – | 1.283 mPa·s | 1.282 mPa·s
298.15 K | 1.302 mPa·s | – | –
303 K | – | 1.18 mPa·s | 1.177 mPa·s
303.15 K | 1.206 mPa·s | 1.18 mPa·s and 1.177 mPa·s and 1.203 mPa·s | –
308 K | – | 1.096 mPa·s | 1.1 mPa·s
308.15 K | 1.123 mPa·s | – | –
313 K | – | 1.02 mPa·s | 1.02 mPa·s
313.15 K | 1.056 mPa·s | – | –
313.35 K | – | 1.021 mPa·s | –
318 K | – | 0.968 mPa·s | 0.967 mPa·s
318.15 K | 0.9805 mPa·s | 0.931 mPa·s and 0.8294 mPa·s and 0.9484 mPa·s | –
323.15 K | 0.9197 mPa·s | 0.854 mPa·s | –

COC(C)OC
Conditions | viscosity [mPa·s]
298.15 K, 101 kPa | 4.04

Cc1ccc(C(C)C)cc1
Conditions | viscosity [mPa·s]
293.15 K, 101 kPa | 0.826

Cn1ccnc1
viscosity
Conditions | 298.15 K | 308.15 K | 318.15 K
100 kPa | 1.778 mPa·s and 1.778 mPa·s | 1.482 mPa·s and 1.482 mPa·s | 1.267 mPa·s and 1.267 mPa·s
101 kPa | 1.68 mPa·s | 1.382 mPa·s and 1.415 mPa·s | 1.213 mPa·s

FC(F)(F)c1ccccc1
viscosity [mPa·s]
Conditions | 298.15 K | 323.15 K
101 kPa | 0.53 | 0.46
101.33 kPa | 0.5524 | –

O=C1CCCCCO1
101 kPa
Conditions | viscosity [mPa·s]
303.15 K | 4.885
308.15 K | 4.324
313.15 K | 3.818
318.15 K | 3.42

[2H]O[2H]
101 kPa
Conditions | viscosity
293.15 K | 1.253 mPa·s
297.15 K | 1.128 mPa·s
299.15 K | 1.072 mPa·s
300.15 K | 0.994 mPa·s and 1.05 mPa·s
301.15 K | 1.026 mPa·s
302.15 K | 1 mPa·s
303.1 K | 0.973 mPa·s
303.15 K | 0.981 mPa·s
304.15 K | 0.964 mPa·s
305.15 K | 0.884 mPa·s and 0.942 mPa·s
306.15 K | 0.924 mPa·s
307.15 K | 0.901 mPa·s
308.15 K | 0.879 mPa·s
309.15 K | 0.861 mPa·s
310.15 K | 0.842 mPa·s
311.15 K | 0.826 mPa·s
312.15 K | 0.809 mPa·s
313.1 K | 0.785 mPa·s
313.15 K | 0.791 mPa·s
323.1 K | 0.649 mPa·s

CCCCCCCCCCCCCCCCCC[P+](CCCC)(CCCC)CCCC.N#Cc1ccc[n-]1 + OCCN(CCO)CCO
viscosity [mPa·s], [1], 100 kPa
Conditions | 293.15 K | 298.15 K | 303.15 K | 313.15 K
x1 = 0.014 | 971 | 643 | 420 | 192
x1 = 0.029 | 1032 | 613 | 390 | 189
x1 = 0.046 | 1123 | 683 | 439 | 217
x1 = 0.085 | 1228 | 775 | 506 | 248
x1 = 0.104 | 1251 | 794 | 526 | 258
x1 = 0.214 | 1185 | 795 | 538 | 267
x1 = 0.286 | 1096 | 746 | 509 | 257
x1 = 0.387 | 1019 | 704 | 483 | 248
x1 = 0.475 | 928 | 646 | 448 | 233
x1 = 0.548 | 856 | 600 | 422 | 225
x1 = 0.73 | 847 | 614 | 459 | 242
x1 = 0.834 | 925 | 653 | 459 | 244

CCCC[P+](CC)(CC)CC.N#Cc1ccc[n-]1 + OCCN(CCO)CCO
[1], 293.15 K, 100 kPa
Conditions | viscosity [mPa·s]
x1 = 0.018 | 956
x1 = 0.089 | 975
x1 = 0.104 | 937
x1 = 0.223 | 809
x1 = 0.413 | 679

CCCCOC(=O)c1ccccc1C(=O)OCCCC + Oc1cccc(O)c1
Conditions | viscosity [mPa·s]
[1], 293.15 K, 101 kPa, x2 = 0.35 | 69.1

[2H]O[2H] + [Br-].[K+]
viscosity [mPa·s], [1], 101 kPa
Conditions | x2 = 0.012 | x2 = 0.0375 | x2 = 0.056 | x2 = 0.067 | x2 = 0.073 | x2 = 0.081
298.15 K | 1.086 | 1.046 | 1.024 | 1.018 | 1.03 | 1.047
308.15 K | 0.854 | 0.856 | 0.853 | 0.85 | 0.868 | 0.884
318.15 K | 0.715 | 0.725 | 0.732 | 0.739 | 0.754 | 0.767

[2H]O[2H] + [Cl-].[K+]
viscosity [mPa·s], [1], 101 kPa
Conditions | x2 = 0.005 | x2 = 0.01 | x2 = 0.022 | x2 = 0.04 | x2 = 0.064
298.15 K | 1.095 | 1.08 | 1.076 | 1.089 | 1.101
308.15 K | 0.868 | 0.859 | 0.871 | 0.889 | 0.912
318.15 K | 0.714 | 0.709 | 0.732 | 0.755 | 0.784

[2H]O[2H] + [Cl-].[Li+]
viscosity [mPa·s], [1], 101 kPa
Conditions | x2 = 0.024 | x2 = 0.076 | x2 = 0.141 | x2 = 0.197 | x2 = 0.215
298.15 K | – | 1.712 | 3.692 | – | 8.914
308.15 K | 1.039 | 1.351 | 3.018 | – | 6.744
318.15 K | 0.854 | 1.112 | 2.397 | 4.216 | 5.422

C=CC#N + c1ccccc1
[1], 307.4 K, 101.33 kPa
Conditions | viscosity [mPa·s]
x2 = 0.0966 | 0.494
x2 = 0.2512 | 0.448
x2 = 0.4788 | 0.395
x2 = 0.5188 | 0.386
x2 = 0.6633 | 0.357
x2 = 0.8844 | 0.32

CC1CCC(O)CC1 (configuration not stated) + c1ccccc1
[1], 293.15 K, 101 kPa
Conditions | viscosity [mPa·s]
x2 = 0.33 | 5.3
x2 = 0.5 | 2.4
x2 = 0.6 | 1.8
x2 = 0.667 | 1.6
x2 = 0.75 | 1.4
x2 = 0.8 | 1.3
